Reference: patent US8217013B2, “Polyene diester antibiotics” (priority 2007, dated 2012)
Where two headings read alike, the source gives them in different places.

What was measured:
Assay in all cases: Test of antibacterial activity in vitro (bacteria-inhibition zone)
Type in all cases: cell-based
Candida mycoderma = system: Candida mycoderma
Excerpt: (§1) Test of Antibacterial Activity In Vitro
(§2) Experiment drugs: the polyene diester compounds prepared by examples 1-12
(§3) Control drugs: amphotericin B (standard product) • mycostatin (standard product) • natamycin (standard product)
2.3 Preparation of Candida mycoderrna suspension: the method is as same as preparation of Saccharomyces cerevisiae suspension
(§4) Taking appropriate amount of the above mentioned amphotericin B, mycostatin, natamycin and the polyene diester compounds prepared by examples 1-8 and 10-12, dissolving in a little dimethyl sulfoxide respectively, using pH7 phosphate buffer to dilute into solution which is equivalent to contain amphotericin B, mycostatin, natamycin 280 Units per milliliter, taking 1 ml and using pH7 phosphate buffer to quantitatively dilute into solution which is equivalent to contain amphotericin B 1.4 μg/ml and 2.8 μg/ml, and is equivalent to contain 5.6 μg/ml of mycostatin and natamycin.
(§5) In addition, preparing the solution according to the same method, adding 40% defibered sheep serum, using pH7 phosphate buffer to quantitatively dilute into unit solution which is equivalent to contain amphotericin B 1.4 μg/ml and 2.8 μg/ml, and is equivalent to contain 5.6 μg/ml of mycostatin and natamycin. Testing according to PHARMACOPOEIA OF THE PEOPLES REPUBLIC OF CHINA, second part, 2005 edition, appendix XIA The Antibiotics Microorganism Test.
(§6) Medium: Improved Martin Agar Medium, PHARMACOPOEIA OF THE PEOPLES REPUBLIC OF CHINA, second part, 2005 edition, appendix p 84.
(§7) Test method: Double-plate counting method; […] bacteria bed 15 ml to replace the double layers, culture temperature: 37° C., time: 24 h; strain concentration: 1%
(§8) Medium: Modified Martin Broth Medium

Candida albicans = conditions: for zone of inhibition at 5.6 µg/mL: Candida albicans
Excerpt: as §1, §2, §3
2.1 Preparation of Candida albicans suspension: PHARMACOPOEIA OF THE PEOPLES REPUBLIC OF CHINA, second part, 2005 edition, appendix p 81-84.
as §4, §5, §6
Test method: Double-plate counting method; […] bacteria bed 15 ml to replace the double layers, culture temperature: 37° C., time: 24 h; strain concentration: 1% […]

Saccharomyces cerevisiae = conditions: for zone of inhibition at 5.6 µg/mL: Saccharomyces cerevisiae
Excerpt: as §1, §2, §3
2.2 Preparation of Saccharomyces cerevisiae suspension: PHARMACOPOEIA OF THE PEOPLES REPUBLIC OF CHINA, second part, 2005 edition, appendix p 80, p 83.
as §4, §5, §6, §7, §8

[1] = 0 h, 5.6 μg/ml after conversion, serum added (40% defibered sheep serum)
[2] = 6 h, 5.6 μg/ml after conversion, serum added (40% defibered sheep serum)
[3] = 24 h, 5.6 μg/ml after conversion, serum added (40% defibered sheep serum)
[4] = 48 h, 5.6 μg/ml after conversion, serum added (40% defibered sheep serum)
[5] = 0 h, 5.6 μg/ml after conversion, no serum
[6] = 6 h, 5.6 μg/ml after conversion, no serum
[7] = 24 h, 5.6 μg/ml after conversion, no serum
[8] = 48 h, 5.6 μg/ml after conversion, no serum
[9] = 0 h, 2.8 μg/ml after conversion, no serum
[10] = 0 h, 2.8 μg/ml after conversion, serum added (40% defibered sheep serum)
[11] = 6 h, 2.8 μg/ml after conversion, no serum
[12] = 24 h, 2.8 μg/ml after conversion, no serum
[13] = 48 h, 2.8 μg/ml after conversion, no serum

| Compound | diameter of the bacteria-inhibition zone, Candida albicans 0 h (Candida albicans; [1]) | diameter of the bacteria-inhibition zone, Candida albicans 6 h (Candida albicans; [2]) | diameter of the bacteria-inhibition zone, Candida albicans 24 h (Candida albicans; [3]) | diameter of the bacteria-inhibition zone, Candida albicans 48 h (Candida albicans; [4]) | diameter of the bacteria-inhibition zone, Candida mycoderma 0 h (Candida mycoderma; [5]) | diameter of the bacteria-inhibition zone, Candida mycoderma 0 h (Candida mycoderma; [1]) | diameter of the bacteria-inhibition zone, Candida mycoderma 6 h (Candida mycoderma; [6]) | diameter of the bacteria-inhibition zone, Candida mycoderma 24 h (Candida mycoderma; [7]) | diameter of the bacteria-inhibition zone, Candida mycoderma 48 h (Candida mycoderma; [8]) | diameter of the bacteria-inhibition zone, Candida albicans 0 h (Candida albicans; [5]) | diameter of the bacteria-inhibition zone, Candida albicans 6 h (Candida albicans; [6]) | diameter of the bacteria-inhibition zone, Candida albicans 24 h (Candida albicans; [7]) | diameter of the bacteria-inhibition zone, Candida albicans 48 h (Candida albicans; [8]) | diameter of the bacteria-inhibition zone, Saccharomyces cerevisiae 0 h (Saccharomyces cerevisiae; [5]) | diameter of the bacteria-inhibition zone, Saccharomyces cerevisiae 0 h (Saccharomyces cerevisiae; [1]) | diameter of the bacteria-inhibition zone, Saccharomyces cerevisiae 6 h (Saccharomyces cerevisiae; [6]) | diameter of the bacteria-inhibition zone, Saccharomyces cerevisiae 6 h (Saccharomyces cerevisiae; [2]) | diameter of the bacteria-inhibition zone, Saccharomyces cerevisiae 24 h (Saccharomyces cerevisiae; [7]) | diameter of the bacteria-inhibition zone, Saccharomyces cerevisiae 48 h (Saccharomyces cerevisiae; [8]) | further results |
| --- | --- | --- | --- | --- | --- | --- | --- | --- | --- | --- | --- | --- | --- | --- | --- | --- | --- | --- | --- | --- |
| CC1OC(OC2/C=C/C=C/C=C/C=C/CC/C=C/C=C/C(C)[C@@H](O)[C@@H](C)[C@H](C)OC(=O)CC(O)CC(O)CC(O)CCC(O)C(O)C[C@]3(O)CC(O)C(C(=O)O)C(C2)O3)C(O)C(N)C1O (stereo partly drawn) [mycostatin, reference compound] | + (7-9 mm: +) | + (7-9 mm: +) | + (7-9 mm: +) | + (7-9 mm: +) |  |  |  |  |  |  |  |  |  |  |  |  |  |  |  | zone of inhibition at 5.6 µg/mL (Candida mycoderma; 0 h, 5.6 μg/ml after conversion, no serum, read-out: diameter of the bacteria-inhibition zone, Candida mycoderma 0 h): 12 to 14 mm; zone of inhibition at 5.6 µg/mL (Candida mycoderma; 6 h, 5.6 μg/ml after conversion, no serum, read-out: diameter of the bacteria-inhibition zone, Candida mycoderma 6 h): 12 to 14 mm; zone of inhibition at 5.6 µg/mL (Candida mycoderma; 24 h, 5.6 μg/ml after conversion, no serum, read-out: diameter of the bacteria-inhibition zone, Candida mycoderma 24 h): 12 to 14 mm; zone of inhibition at 5.6 µg/mL (Candida mycoderma; 48 h, 5.6 μg/ml after conversion, no serum, read-out: diameter of the bacteria-inhibition zone, Candida mycoderma 48 h): 12 to 14 mm; zone of inhibition at 5.6 µg/mL (Candida albicans; 0 h, 5.6 μg/ml after conversion, no serum, read-out: diameter of the bacteria-inhibition zone, Candida albicans 0 h): 7 to 9 mm; zone of inhibition at 5.6 µg/mL (Candida albicans; 6 h, 5.6 μg/ml after conversion, no serum, read-out: diameter of the bacteria-inhibition zone, Candida albicans 6 h): 7 to 9 mm; zone of inhibition at 5.6 µg/mL (Candida albicans; 24 h, 5.6 μg/ml after conversion, no serum, read-out: diameter of the bacteria-inhibition zone, Candida albicans 24 h): 7 to 9 mm; zone of inhibition at 5.6 µg/mL (Candida albicans; 48 h, 5.6 μg/ml after conversion, no serum, read-out: diameter of the bacteria-inhibition zone, Candida albicans 48 h): 7 to 9 mm; zone of inhibition at 5.6 µg/mL (Saccharomyces cerevisiae; 0 h, 5.6 μg/ml after conversion, no serum, read-out: diameter of the bacteria-inhibition zone, Saccharomyces cerevisiae 0 h): 14 to 16 mm; zone of inhibition at 5.6 µg/mL (Saccharomyces cerevisiae; 0 h, 5.6 μg/ml after conversion, serum added (40% defibered sheep serum), read-out: diameter of the bacteria-inhibition zone, Saccharomyces cerevisiae 0 h): 14 to 16 mm; zone of inhibition at 5.6 µg/mL (Saccharomyces cerevisiae; 6 h, 5.6 μg/ml after conversion, no serum, read-out: diameter of the bacteria-inhibition zone, Saccharomyces cerevisiae 6 h): 14 to 16 mm; zone of inhibition at 5.6 µg/mL (Saccharomyces cerevisiae; 6 h, 5.6 μg/ml after conversion, serum added (40% defibered sheep serum), read-out: diameter of the bacteria-inhibition zone, Saccharomyces cerevisiae 6 h): 14 to 16 mm; zone of inhibition at 5.6 µg/mL (Saccharomyces cerevisiae; 24 h, 5.6 μg/ml after conversion, no serum, read-out: diameter of the bacteria-inhibition zone, Saccharomyces cerevisiae 24 h): 14 to 16 mm; zone of inhibition at 5.6 µg/mL (Saccharomyces cerevisiae; 24 h, 5.6 μg/ml after conversion, serum added (40% defibered sheep serum), read-out: diameter of the bacteria-inhibition zone, Saccharomyces cerevisiae 24 h): 14 to 16 mm; zone of inhibition at 5.6 µg/mL (Saccharomyces cerevisiae; 48 h, 5.6 μg/ml after conversion, no serum, read-out: diameter of the bacteria-inhibition zone, Saccharomyces cerevisiae 48 h): 14 to 16 mm; zone of inhibition at 5.6 µg/mL (Saccharomyces cerevisiae; 48 h, 5.6 μg/ml after conversion, serum added (40% defibered sheep serum), read-out: diameter of the bacteria-inhibition zone, Saccharomyces cerevisiae 48 h): 14 to 16 mm |
| CCOC(=O)OC(C)OC(=O)[C@H]1[C@@H]2C[C@@H](O[C@@H]3OC(C)[C@@H](O)[C@@H](N)[C@H]3O)/C=C/C=C/C=C/C=C/C[C@@H](C)OC(=O)/C=C/[C@H]3O[C@@H]3C[C@H](O)C[C@](O)(C[C@@H]1O)O2 (stereo partly drawn) [natamycin ethoxycarbonyloxyethyl ester] | + (7-9 mm: +) | ++ (9-12 mm: ++) | ++ (9-12 mm: ++) | ++ (9-12 mm: ++) | + (7-9 mm: +) | + (7-9 mm: +) | + (7-9 mm: +) | + (7-9 mm: +) | + (7-9 mm: +) | + (7-9 mm: +) | + (7-9 mm: +) | + (7-9 mm: +) | + (7-9 mm: +) | + (7-9 mm: +) | + (7-9 mm: +) | + (7-9 mm: +) | ++ (9-12 mm: ++) | + (7-9 mm: +) | + (7-9 mm: +) | diameter of the bacteria-inhibition zone, Candida mycoderma 6 h (Candida mycoderma; [2]): ++ (9-12 mm: ++) |
| Natamycin methyl pivalate | + (7-9 mm: +) | ++ (9-12 mm: ++) | ++ (9-12 mm: ++) | ++ (9-12 mm: ++) | ++ (9-12 mm: ++) | ++ (9-12 mm: ++) | ++ (9-12 mm: ++) | ++ (9-12 mm: ++) | ++ (9-12 mm: ++) | + (7-9 mm: +) | + (7-9 mm: +) | + (7-9 mm: +) | + (7-9 mm: +) | + (7-9 mm: +) | + (7-9 mm: +) | + (7-9 mm: +) | ++ (9-12 mm: ++) | + (7-9 mm: +) | + (7-9 mm: +) |  |
| amphotericin B-1, 3-2H-3-oxo-1-isobenzofuran ester |  |  |  |  |  |  |  |  |  |  |  |  |  |  |  |  |  |  |  | diameter of the bacteria-inhibition zone, Candida mycoderma 0 h (Candida mycoderma; [9]): ++ (9-12 mm: ++); diameter of the bacteria-inhibition zone, Candida mycoderma 0 h (Candida mycoderma; [10]): ++ (9-12 mm: ++); diameter of the bacteria-inhibition zone, Candida mycoderma 6 h (Candida mycoderma; [11]): ++ (9-12 mm: ++); diameter of the bacteria-inhibition zone, Candida mycoderma 24 h (Candida mycoderma; [12]): ++ (9-12 mm: ++); diameter of the bacteria-inhibition zone, Candida mycoderma 48 h (Candida mycoderma; [13]): ++ (9-12 mm: ++); diameter of the bacteria-inhibition zone, Candida albicans 0 h (Candida albicans; [9]): + (7-9 mm: +); diameter of the bacteria-inhibition zone, Candida albicans 0 h (Candida albicans; [10]): + (7-9 mm: +); diameter of the bacteria-inhibition zone, Candida albicans 6 h (Candida albicans; [11]): + (7-9 mm: +); diameter of the bacteria-inhibition zone, Candida albicans 6 h (Candida albicans; 6 h, 2.8 μg/ml after conversion, serum added (40% defibered sheep serum)): ++ (9-12 mm: ++); diameter of the bacteria-inhibition zone, Candida albicans 24 h (Candida albicans; [12]): + (7-9 mm: +); diameter of the bacteria-inhibition zone, Candida albicans 48 h (Candida albicans; [13]): + (7-9 mm: +); diameter of the bacteria-inhibition zone, Saccharomyces cerevisiae 0 h (Saccharomyces cerevisiae; [9]): ++ (9-12 mm: ++); diameter of the bacteria-inhibition zone, Saccharomyces cerevisiae 0 h (Saccharomyces cerevisiae; [10]): ++ (9-12 mm: ++); diameter of the bacteria-inhibition zone, Saccharomyces cerevisiae 6 h (Saccharomyces cerevisiae; [11]): ++ (9-12 mm: ++); diameter of the bacteria-inhibition zone, Saccharomyces cerevisiae 24 h (Saccharomyces cerevisiae; [12]): ++ (9-12 mm: ++); diameter of the bacteria-inhibition zone, Saccharomyces cerevisiae 48 h (Saccharomyces cerevisiae; [13]): ++ (9-12 mm: ++) |
| mycostatin ethyl acetate | + (7-9 mm: +) | + (7-9 mm: +) | + (7-9 mm: +) | + (7-9 mm: +) | ++ (9-12 mm: ++) | ++ (9-12 mm: ++) | ++ (9-12 mm: ++) | ++ (9-12 mm: ++) | ++ (9-12 mm: ++) | + (7-9 mm: +) | + (7-9 mm: +) | + (7-9 mm: +) | + (7-9 mm: +) | ++ (9-12 mm: ++) | ++ (9-12 mm: ++) | ++ (9-12 mm: ++) |  | ++ (9-12 mm: ++) | ++ (9-12 mm: ++) |  |
